Compound: O=C1/C(=C/c2ccc(O)cc2)CCC/C1=C\c1ccc(O)cc1
- solubility (mole fraction) (in 1,4-dioxane, 299.15 K): 0.0074
- solubility (mole fraction) (in 1,4-dioxane, 303.15 K): 0.0085
- solubility (mole fraction) (in 1,4-dioxane, 308.15 K): 0.0101
- solubility (mole fraction) (in 1,4-dioxane, 313.15 K): 0.0115
- solubility (mole fraction) (in 1,4-dioxane, 318.15 K): 0.0135
- solubility (mole fraction) (in 1,4-dioxane, 323.15 K): 0.0153
- solubility (mole fraction) (in 1,4-dioxane, 328.15 K): 0.0172
- solubility (mole fraction) (in DMF, 299.15 K): 0.0332
- solubility (mole fraction) (in DMF, 303.15 K): 0.0388
- solubility (mole fraction) (in DMF, 308.15 K): 0.0458
- solubility (mole fraction) (in DMF, 313.15 K): 0.0556
- solubility (mole fraction) (in DMF, 318.15 K): 0.0658
- solubility (mole fraction) (in DMF, 323.15 K): 0.0816
- solubility (mole fraction) (in DMF, 328.15 K): 0.106
- solubility (mole fraction) (in DMSO, 299.15 K): 0.0112
- solubility (mole fraction) (in DMSO, 303.15 K): 0.0132
- solubility (mole fraction) (in DMSO, 308.15 K): 0.0156
- solubility (mole fraction) (in DMSO, 313.15 K): 0.0251
- solubility (mole fraction) (in DMSO, 318.15 K): 0.0371
- solubility (mole fraction) (in DMSO, 323.15 K): 0.0528
- solubility (mole fraction) (in DMSO, 328.15 K): 0.0742
- solubility (mole fraction) (in THF, 299.15 K): 0.023
- solubility (mole fraction) (in THF, 303.15 K): 0.0256
- solubility (mole fraction) (in THF, 308.15 K): 0.0281
- solubility (mole fraction) (in THF, 313.15 K): 0.0319
- solubility (mole fraction) (in THF, 318.15 K): 0.0387
- solubility (mole fraction) (in THF, 323.15 K): 0.0461
- solubility (mole fraction) (in THF, 328.15 K): 0.0527
- solubility (mole fraction) (in acetic acid, 299.15 K): 0.0032
- solubility (mole fraction) (in acetic acid, 303.15 K): 0.0034
- solubility (mole fraction) (in acetic acid, 308.15 K): 0.0036
- solubility (mole fraction) (in acetic acid, 313.15 K): 0.0039
- solubility (mole fraction) (in acetic acid, 318.15 K): 0.0044
- solubility (mole fraction) (in acetic acid, 323.15 K): 0.0052
- solubility (mole fraction) (in acetic acid, 328.15 K): 0.0063
- solubility (mole fraction) (in acetone, 299.15 K): 0.0049
- solubility (mole fraction) (in acetone, 303.15 K): 0.0061
- solubility (mole fraction) (in acetone, 308.15 K): 0.0073
- solubility (mole fraction) (in acetone, 313.15 K): 0.0093
- solubility (mole fraction) (in acetone, 318.15 K): 0.0114
- solubility (mole fraction) (in acetone, 323.15 K): 0.0128
- solubility (mole fraction) (in acetone, 328.15 K): 0.0147
- solubility (mole fraction) (in ethyl acetate, 299.15 K): 0.0021
- solubility (mole fraction) (in ethyl acetate, 303.15 K): 0.0031
- solubility (mole fraction) (in ethyl acetate, 308.15 K): 0.004
- solubility (mole fraction) (in ethyl acetate, 313.15 K): 0.0053
- solubility (mole fraction) (in ethyl acetate, 318.15 K): 0.0069
- solubility (mole fraction) (in ethyl acetate, 323.15 K): 0.0102
- solubility (mole fraction) (in ethyl acetate, 328.15 K): 0.0136
- solubility (mole fraction) (in methanol, 299.15 K): 0.0034
- solubility (mole fraction) (in methanol, 303.15 K): 0.0041
- solubility (mole fraction) (in methanol, 308.15 K): 0.0051
- solubility (mole fraction) (in methanol, 313.15 K): 0.0066
- solubility (mole fraction) (in methanol, 318.15 K): 0.0086
- solubility (mole fraction) (in methanol, 323.15 K): 0.0102
- solubility (mole fraction) (in methanol, 328.15 K): 0.0129
- solubility (mole fraction) (in n-butanol, 299.15 K): 0.0134
- solubility (mole fraction) (in n-butanol, 303.15 K): 0.0142
- solubility (mole fraction) (in n-butanol, 308.15 K): 0.0152
- solubility (mole fraction) (in n-butanol, 313.15 K): 0.0164
- solubility (mole fraction) (in n-butanol, 318.15 K): 0.0178
- solubility (mole fraction) (in n-butanol, 323.15 K): 0.021
- solubility (mole fraction) (in n-butanol, 328.15 K): 0.0235
- solubility (mole fraction) (in n-propanol, 299.15 K): 0.0013
- solubility (mole fraction) (in n-propanol, 303.15 K): 0.0023
- solubility (mole fraction) (in n-propanol, 308.15 K): 0.0036
- solubility (mole fraction) (in n-propanol, 313.15 K): 0.0056
- solubility (mole fraction) (in n-propanol, 318.15 K): 0.0086
- solubility (mole fraction) (in n-propanol, 323.15 K): 0.0123
- solubility (mole fraction) (in n-propanol, 328.15 K): 0.0169

Source: BigSolDB 2.1
